Experimental data reported in paper PMC6753678, “Fueling Open Innovation for Malaria Transmission-Blocking Drugs: Hundreds of Molecules Targeting Early Parasite Mosquito Stages” (Frontiers in Microbiology, 2019).
pIC50: −log10 of the molar value. Where two headings read alike, the source gives them in different places.

Tests used:
[1] = system: P. berghei ookinete development; details: for % inhibition, Replicate A / % inhibition, Replicate B: primary screen at 1 μM
[2] = system: 3D7-strain P. falciparum asexual parasites; experiment: P. falciparum asexual growth inhibition assay (Pf GIA); type: cell-based, Plasmodium falciparum; details: dose response confirmation; read-out: Pf asexual growth inhibition assays IC50
Summary of the method: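 Steps: seed parasites (0.25% parasitemia, 2% hematocrit) onto compound dilutions; incubate 72 h at 37°C, 5% O2/5% CO2; freeze at −70°C and thaw; add LDH reaction mix, read A650 after 10 min. Percent growth inhibition derived from chloroquine and DMSO controls, averaged over three biological replicates.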

[3] = system: HepG2 cells; experiment: HepG2 cytotoxicity assay; details: for pIC50: read-out: HepG2 cytotoxicity assay IC50, dose response confirmation; for Pb ODA (this manuscript) HepG2 cytoxicity: HepG2 cytotoxicity listed with the Pb ODA data set (this manuscript)
Summary of the method: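 Cells at 2,500 per well in MEM with 10% fetal bovine serum and 1% NEAA were exposed to test compounds for 48 h at 37°C, 5% CO2. Viability was read by fluorescence, with percent inhibition calculated against 50 μM doxorubicin (positive) and DMSO (negative) controls.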

[4] = read-out: Pb ODA IC50, this manuscript
[5] = read-out: Pb Ookinete development assay IC50, dose response confirmation
[6] = HepG2 values of the three screens unified
[7] = read-out: Pb ODA (this manuscript) IC50, P. berghei ookinete development assay, this manuscript
[8] = unified HepG2 value across the three screens

Row | Compound | Is compound selective in assay? Pb ODA active? ([1]; 1: YES, 0: NO) | % inhibition, Replicate A [1] [%] | % inhibition, Replicate B [1] [%] | pIC50 [1, 4] | pIC50 [1, 5] | pIC50 [2] | HepG2 cytoxicity (Pb ODA, this manuscript) [3] [µM] | Unified cytotox [3, 6] [µM] | pIC50 [3] | Is compound selective in assay? Pb ODA active? [1] | pIC50 [1, 7] | Pb ODA (this manuscript) HepG2 cytoxicity [3] [µM] | Unified cytotox [3, 8] [µM]
1 | COc1ccc2nccc([C@@H](O)CN3CCC(NCc4cc5ccc(C#N)cc5[nH]4)CC3)c2c1.O=C(O)C(=O)O [TCMDC-140696] | 0 (0: NO) | 54.58 | 89.62 | 5.73 | 5.73 | 6.77 | 1.55 | 1.55 | 5.81 | – | – | – | –
2 | COc1ccc2nccc([C@@H](O)CN3CCC(NCc4cc5c(F)ccc(F)c5[nH]4)CC3)c2c1.O=C(O)C(=O)O [TCMDC-140739] | 0 (0: NO) | 18.82 | 50.21 | 5.55 | 5.56 | 7.01 | 14.79 | 14.79 | 4.83 | – | – | – | –
3 | COc1ccc2nccc([C@@H](O)CN3CCC(NC(=O)c4ccc5cc[nH]c5c4)CC3)c2c1.CS(=O)(=O)O [TCMDC-140743] | 1 (1: YES) | 89.95 | 58.25 | 6.34 | 6.34 | 5.95 | – | 100.00 | 4.00 | – | – | – | –
4 | COc1ccc2nccc([C@@H](O)CN3CCC(NCc4cc5c(F)ccc(F)c5[nH]4)CC3)c2n1.CS(=O)(=O)O [TCMDC-140749] | – | 52.78 | 27.90 | – | 5.49 | 6.89 | – | – | 4.85 | 0 (key: 1: YES; 0: NO) | 5.49 | 14.13 | –
5 | COc1ccc2nccc([C@@H](O)CN3CCC(NCc4cc5ccccc5nc4O)CC3)c2c1.Cl [TCMDC-140759] | 1 (1: YES) | 50.79 | 52.50 | 5.70 | 5.70 | 6.37 | 48.98 | 48.98 | 4.31 | – | – | – | –
6 | O=C(NCc1ccco1)c1ccc(CN2CCN(C(c3ccccc3)c3ccccc3)CC2)cc1 [TCMDC-140763] | 1 (1: YES) | 50.96 | 28.39 | 5.83 | 5.83 | 5.90 | – | – | 4.28 | – | – | – | 52.48
7 | COc1ccc2nccc([C@@H](O)CN3CCC(NC(=O)c4cc5ccccc5[nH]4)CC3)c2c1.CS(=O)(=O)O [TCMDC-140780] | 1 (1: YES) | 48.77 | 68.59 | 6.62 | 6.62 | 6.03 | 50.70 | 50.70 | 4.29 | – | – | – | –
8 | COc1ccc2nccc([C@@H](O)CN3CCC(NC(=O)c4cc5c(F)cc(F)cc5[nH]4)CC3)c2c1.CS(=O)(=O)O [TCMDC-140781] | 1 (1: YES) | 60.81 | 64.63 | 6.00 | 6.00 | 6.52 | 11.22 | 11.22 | 4.95 | – | – | – | –
9 | COc1ccc2nccc([C@@H](O)CN3CCC(NCc4ccc5c(c4)NC(=O)CO5)CC3)c2c1.Cl [TCMDC-140793] | – | 51.85 | 48.48 | – | 5.44 | 6.14 | – | – | 4.55 | 0 (key: 1: YES; 0: NO) | 5.44 | 28.18 | –
10 | COc1ccc2nccc([C@@H](O)CN3CCC(NC(=O)/C=C/c4c[nH]c5c(C)cccc45)CC3)c2c1 [TCMDC-141000] | 1 (1: YES) | 72.27 | 60.86 | 5.72 | 5.72 | 6.36 | 51.29 | 51.29 | 4.29 | – | – | – | –
11 | CN(C)CCN(C)C(=O)c1cc(-c2ccncc2)c(-c2ccc(Cl)c(O)c2)o1.Cl [TCMDC-141393] | 1 (1: YES) | 35.76 | 53.63 | 5.76 | 5.76 | 5.60 | – | – | 4.27 | – | – | – | 53.70
12 | COc1ccc2nccc(NC(=O)C3(O)CCC(NCc4ccc5c(c4)NCCS5)CC3)c2n1.Cl (stereo not shown) [TCMDC-141406] | – | 91.89 | 114.20 | – | 6.46 | 5.98 | – | – | 4.61 | 1 (key: 1: YES; 0: NO) | 6.46 | 24.27 | –
13 | CCN(CC)CCCNc1nccc(N(C)c2ccc(NC(=O)Nc3cc(C(F)(F)F)ccc3F)cc2)n1.O=C(O)C(F)(F)F [TCMDC-141634] | 0 (0: NO) | 55.58 | 13.78 | 5.04 | 5.04 | 6.09 | – | – | 5.56 | – | – | – | 2.75
14 | COc1ccc2ncc(Cl)c(CCN3CCC(NCc4ccc5c(n4)NC(=O)CS5)CC3)c2c1.Cl [TCMDC-141807] | 1 (1: YES) | 68.31 | 67.95 | 5.87 | 5.87 | 6.42 | 15.49 | 15.49 | 4.81 | – | – | – | –
15 | COc1ccc2ncc(Cl)c(CCN3CCC(NCc4ccc5c(n4)NC(=O)CO5)CC3)c2c1.Cl [TCMDC-141808] | – | 43.21 | 70.93 | – | 5.91 | 7.85 | – | – | 5.89 | 0 (key: 1: YES; 0: NO) | – | 1.29 | –
16 | COc1ccc2nccc(N3CCC(CCNCc4ccc5c(n4)NC(=O)CS5)CC3)c2n1.Cl [TCMDC-141944] | 0 (0: NO) | 58.34 | 37.24 | 5.05 | 5.05 | 6.80 | 14.79 | 14.79 | 4.83 | – | – | – | –
17 | COc1c(F)ccc2ncc(Cl)c(CCN3CCC(NCc4ccc5c(n4)NC(=O)CS5)CC3)c12.Cl [TCMDC-141955] | 1 (1: YES) | 54.74 | 63.10 | 5.72 | 5.72 | 5.92 | 23.99 | 23.99 | 4.62 | – | – | – | –
18 | Cl.O=C1CSc2ccc(CNC3CCN(CCc4c(Cl)cnc5ccc(Cl)cc45)CC3)nc2N1 [TCMDC-141959] | 0 (0: NO) | 64.42 | 30.41 | 5.37 | 5.37 | 6.49 | 17.78 | 17.78 | 4.75 | – | – | – | –
19 | Cl.O=C1CSc2ccc(CNC3CCN(CCc4c(Cl)cnc5ccc(F)cc45)CC3)nc2N1 [TCMDC-141960] | 1 (1: YES) | 68.86 | 55.86 | 5.52 | 5.52 | 6.68 | 38.90 | 38.90 | 4.41 | – | – | – | –
20 | Nc1nc(N)c2c(ccc3c2ccn3Cc2ccccc2)n1 [TCMDC-141977] | 0 (0: NO) | 47.17 | 65.82 | 6.54 | 6.54 | 9.00 | 0.15 | 0.15 | 6.82 | – | – | – | –
21 | CCOc1ccc2[nH]c(C)cc(=NN=Cc3cccnc3)c2c1 [TCMDC-142047] | 0 (0: NO) | 59.45 | 48.70 | 5.34 | 5.34 | 6.86 | – | – | 4.82 | – | – | – | 15.14
22 | CC1=CC(=O)[C@@H](O)[C@]2(C)[C@H]3[C@@]4(O)OC[C@@]35[C@@H](C[C@@H]12)OC(=O)C[C@H]5[C@@H](C)[C@H]4O [TCMDC-142261] | 1 (1: YES) | 102.04 | 101.98 | 7.26 | 7.26 | 6.96 | – | – | 4.58 | – | – | – | 26.30
